The test has as its target T1, full-length ATR (Homo sapiens, UniProt Q13535).
T1 construct: in the presence of 5 nM full-length ATR
Description: ATR Inhibition Assay (radioactive-phosphate incorporation). The settings on record: Ki(app); 5 nM full-length ATR, 10 μM ATP, 800 μM target peptide, 25° C. The class given is biochemical. A digest of the protocol:
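Buffer was 50 mM Tris/HCl pH 7.5, 10 mM MgCl2, 1 mM DTT, with 5 nM enzyme, 10 μM [γ-33P]ATP and 800 μM target peptide at 25 °C. Compound was pre-incubated 10 min before ATP start, and the reaction was stopped after 24 h. Phosphocellulose filter capture; Ki(app) came from non-linear regression of background-corrected initial rates.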
T1 sequence (Q13535 whole entry): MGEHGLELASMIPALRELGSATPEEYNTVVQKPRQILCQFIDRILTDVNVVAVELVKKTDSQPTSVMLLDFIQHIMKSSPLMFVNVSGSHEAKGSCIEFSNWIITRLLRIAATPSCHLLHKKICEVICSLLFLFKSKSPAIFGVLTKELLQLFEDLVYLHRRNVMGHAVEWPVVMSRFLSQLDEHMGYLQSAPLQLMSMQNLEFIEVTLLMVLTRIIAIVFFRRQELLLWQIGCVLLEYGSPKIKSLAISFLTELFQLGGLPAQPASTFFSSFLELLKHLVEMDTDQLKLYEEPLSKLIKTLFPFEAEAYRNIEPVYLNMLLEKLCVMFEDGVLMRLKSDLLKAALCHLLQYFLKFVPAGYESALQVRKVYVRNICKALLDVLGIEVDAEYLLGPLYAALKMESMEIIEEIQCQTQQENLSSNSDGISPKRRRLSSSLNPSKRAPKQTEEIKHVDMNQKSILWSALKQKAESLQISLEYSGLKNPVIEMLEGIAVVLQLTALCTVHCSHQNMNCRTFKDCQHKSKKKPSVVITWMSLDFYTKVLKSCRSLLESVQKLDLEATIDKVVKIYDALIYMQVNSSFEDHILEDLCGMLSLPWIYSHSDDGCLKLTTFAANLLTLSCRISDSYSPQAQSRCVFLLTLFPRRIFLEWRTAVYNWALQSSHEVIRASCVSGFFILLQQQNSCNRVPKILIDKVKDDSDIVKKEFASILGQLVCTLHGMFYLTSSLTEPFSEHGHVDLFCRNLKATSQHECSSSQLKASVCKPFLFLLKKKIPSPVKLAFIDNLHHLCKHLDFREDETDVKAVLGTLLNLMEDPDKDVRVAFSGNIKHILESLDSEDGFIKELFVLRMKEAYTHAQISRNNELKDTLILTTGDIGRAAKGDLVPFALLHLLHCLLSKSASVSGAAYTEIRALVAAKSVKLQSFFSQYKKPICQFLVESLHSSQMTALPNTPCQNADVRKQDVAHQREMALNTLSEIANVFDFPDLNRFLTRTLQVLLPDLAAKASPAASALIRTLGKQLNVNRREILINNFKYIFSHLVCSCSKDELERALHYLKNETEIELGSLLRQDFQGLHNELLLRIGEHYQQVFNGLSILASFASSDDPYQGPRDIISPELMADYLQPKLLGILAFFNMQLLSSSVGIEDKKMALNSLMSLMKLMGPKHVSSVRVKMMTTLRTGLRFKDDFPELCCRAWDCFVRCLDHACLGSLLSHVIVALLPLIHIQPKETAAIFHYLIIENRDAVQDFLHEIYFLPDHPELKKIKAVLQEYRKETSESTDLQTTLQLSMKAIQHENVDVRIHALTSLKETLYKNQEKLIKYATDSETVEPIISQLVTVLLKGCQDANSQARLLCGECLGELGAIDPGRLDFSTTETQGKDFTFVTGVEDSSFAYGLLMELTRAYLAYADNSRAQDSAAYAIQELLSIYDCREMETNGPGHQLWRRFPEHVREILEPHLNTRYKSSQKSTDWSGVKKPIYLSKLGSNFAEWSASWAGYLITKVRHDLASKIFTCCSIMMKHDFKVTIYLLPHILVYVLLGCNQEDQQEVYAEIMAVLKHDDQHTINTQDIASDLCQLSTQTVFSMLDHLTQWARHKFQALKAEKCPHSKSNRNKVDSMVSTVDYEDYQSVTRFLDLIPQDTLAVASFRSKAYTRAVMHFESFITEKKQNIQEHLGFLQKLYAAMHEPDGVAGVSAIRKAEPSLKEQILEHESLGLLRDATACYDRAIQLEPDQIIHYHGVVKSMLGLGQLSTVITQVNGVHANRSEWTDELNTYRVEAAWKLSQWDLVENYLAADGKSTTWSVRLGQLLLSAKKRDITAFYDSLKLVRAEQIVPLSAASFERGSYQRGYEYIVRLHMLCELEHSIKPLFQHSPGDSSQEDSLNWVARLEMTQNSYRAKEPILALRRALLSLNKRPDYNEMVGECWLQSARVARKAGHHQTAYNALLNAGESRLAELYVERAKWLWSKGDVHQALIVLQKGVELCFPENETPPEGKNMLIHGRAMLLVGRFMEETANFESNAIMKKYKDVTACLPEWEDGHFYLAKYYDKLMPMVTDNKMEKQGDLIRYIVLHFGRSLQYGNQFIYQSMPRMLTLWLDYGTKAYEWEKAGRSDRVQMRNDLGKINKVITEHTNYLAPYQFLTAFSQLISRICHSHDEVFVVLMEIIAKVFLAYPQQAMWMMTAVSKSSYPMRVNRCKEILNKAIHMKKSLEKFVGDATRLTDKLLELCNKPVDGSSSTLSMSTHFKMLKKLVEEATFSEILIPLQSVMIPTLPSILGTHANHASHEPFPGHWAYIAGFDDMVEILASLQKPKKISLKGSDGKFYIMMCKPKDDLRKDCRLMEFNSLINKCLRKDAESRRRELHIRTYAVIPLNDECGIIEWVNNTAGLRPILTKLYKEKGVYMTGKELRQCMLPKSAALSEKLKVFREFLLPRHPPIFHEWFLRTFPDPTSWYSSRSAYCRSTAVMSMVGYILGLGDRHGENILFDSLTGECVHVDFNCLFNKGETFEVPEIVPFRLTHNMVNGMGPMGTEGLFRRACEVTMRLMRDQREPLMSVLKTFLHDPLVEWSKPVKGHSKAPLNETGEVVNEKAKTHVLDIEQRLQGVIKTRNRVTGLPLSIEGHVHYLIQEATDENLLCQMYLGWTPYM
Turning to `CNCc1ccc(-c2nnc(-c3nc(N4CCC[C@H]4CO)cnc3N)o2)cc1` [Compound I-352, [(2S)-1-[5-Amino-6-[5-[4-(methylaminomethyl)phenyl]-1,3,4-oxadiazol-2-yl]pyrazin-2-yl]pyrrolidin-2-yl]methanol], the Ki was 100 to 1000 nM.

In the case of `COCC(=O)N[C@H]1CCN(c2cnc(N)c(-c3nc4ccccc4[nH]3)n2)C1` [Compound I-182, (S)-N-(1-(5-amino-6-(1H-benzo[d]imidazol-2-yl)pyrazin-2-yl)pyrrolidin-3-yl)-2-methoxyethanamide], the Ki is 1000 to 10000 nM. Regarding `CC#CCOC(=O)N1CCN(c2cnc(N)c(-c3nnc(-c4ccccc4)o3)n2)CC1` [Compound I-246, but-2-ynyl 4-(5-amino-6-(5-phenyl-1,3,4-oxadiazol-2-yl)pyrazin-2-yl)piperazine-1-carboxylate], the Ki lay in the range of 100 to 1000 nM.

`CCC(CC)C(=O)N[C@H]1CCN(c2cnc(N)c(-c3nc4ccccc4[nH]3)n2)C1` [Compound I-211, (S)-N-(1-(5-amino-6-(1H-benzo[d]imidazol-2-yl)pyrazin-2-yl)pyrrolidin-3-yl)-2-ethylbutanamide]: the Ki was 1000 to 10000 nM. In the case of `Nc1ncc(C2=CCN(C(=O)Cc3ccccc3)CC2)nc1-c1nc2ccccc2[nH]1` [Compound I-213, 1-(4-(5-amino-6-(1H-benzo[d]imidazol-2-yl)pyrazin-2-yl)-5,6-dihydropyridin-1(2H)-yl)-2-phenylethanone] it was 100 to 1000 nM; in that of `CCC(=O)N1CCN(c2cnc(N)c(-c3nnc(-c4ccc(CNC)cc4)o3)n2)CC1(C)C` [Compound I-329, 1-[4-[5-Amino-6-[5-[4-(methylaminomethyl)phenyl]-1,3,4-oxadiazol-2-yl]pyrazin-2-yl]-2,2-dimethyl-piperazin-1-yl]propan-1-one], 1000 to 10000 nM; in that of `COCCOC(=O)N1CC=C(c2cnc(N)c(-c3nc4ccccc4[nH]3)n2)CC1` [Compound I-243, 2-methoxyethyl 4-(5-amino-6-(1H-benzo[d]imidazol-2-yl)pyrazin-2-yl)-5,6-dihydropyridine-1(2H)-carboxylate], 100 to 1000 nM. In the case of `Cc1ccc2nc(-c3nc(N4CCN(c5nccs5)CC4)cnc3N)[nH]c2c1` [Compound I-46, 3-(6-methyl-1H-benzo[d]imidazol-2-yl)-5-(4-(thiazol-2-yl)piperazin-1-yl)pyrazin-2-amine] it was 100 to 1000 nM; in that of `CNCc1ccc(-c2nnc(-c3nc(N4CCC(O)C4)cnc3N)o2)cc1` (centres unmarked) [Compound I-371, (35)-1-[5-Amino-6-[5-[4-(methylaminomethyl)phenyl]-1,3,4-oxadiazol-2-yl]pyrazin-2-yl]pyrrolidin-3-ol], 100 to 1000 nM. In the case of `CCC(CC)C(=O)N1CCN(c2cnc(N)c(-c3nc4ccccc4[nH]3)n2)CC1` [Compound I-175, 1-(4-(5-amino-6-(1H-benzo[d]imidazol-2-yl)pyrazin-2-yl)piperazin-1-yl)-2-ethylbutan-1-one], the Ki fell in the range of 1000 to 10000 nM. For `Nc1ncc(N2CCN(S(=O)(=O)C3CC3)CC2)nc1C(=O)Nc1ccccn1` [Compound I-118, 3-amino-6-(4-(cyclopropylsulfonyl)piperazin-1-yl)-N-(pyridin-2-yl)pyrazine-2-carboxamide] the value was 100 to 1000 nM. Consider `Cc1cccc(C)c1C(=O)N1CCN(c2cnc(N)c(-c3nc4ccccc4[nH]3)n2)CC1` [Compound I-275, (4-(5-amino-6-(1H-benzo[d]imidazol-2-yl)pyrazin-2-yl)piperazin-1-yl)(2,6-dimethylphenyl)methanone], for which the Ki was 1000 to 10000 nM. For `CNC(=O)[C@@H]1CCN(c2cnc(N)c(-c3nc4ccc(C)cc4[nH]3)n2)C1` [Compound I-77, (R)-1-(5-amino-6-(6-methyl-1H-benzo[d]imidazol-2-yl)pyrazin-2-yl)-N-methylpyrrolidine-3-carboxamide] the value was 1000 to 10000 nM; for `COCC(=O)N1CC=C(c2cnc(N)c(-c3nnc(-c4ccccc4)o3)n2)CC1` [Compound I-130, 1-(4-(5-amino-6-(5-phenyl-1,3,4-oxadiazol-2-yl)pyrazin-2-yl)-5,6-dihydropyridin-1(2H)-yl)-2-methoxyethanone], under 100 nM.

Values taken from patent publication US8410112B2, “Compounds useful as inhibitors of ATR kinase” (Vertex Pharmaceuticals Incorporated, priority 2008, dated 2013).
